{
  "source": "patent US7217865B2",
  "about": "“Transgenic high tryptophan plants” (Monsanto Technology LLC, priority 2001, dated 2007)",
  "format_in_all_cases": "biochemical",
  "key": {"[1]": {"biological_target": "Agrobacterium tumefaciens anthranilate synthase variant P293A, SEQ ID NO:63 (Agrobacterium fabrum, UniProt A9CI26, P293A)", "assay": "Anthranilate synthase enzyme assay and kinetic analysis, P293A mutant", "text": "(§1) Site directed mutagenesis was used to generate ten single amino acid substitutions six sites. The mutations were introduced into the Agrobacterium tumefaciens AS in pMON34705 using the QuikChange™ Site-Directed Mutagenesis Kit (Stratagene). The primers used for site directed mutagenesis were SEQ ID NO:9–42 (FIG. 7; F=forward, R=reverse). Each primer sequence is specific for alteration of the nucleic acid at a specific location in the sequence and thus changing the encoded codon to code for a new amino acid. For example, S51C designates a change from serine to cysteine at amino acid position 51 in the Agrobacterium tumefaciens AS peptide sequence.\n(§2) Following mutagenesis the sequence of the entire gene was reconfirmed and the variants expressed and purified from E. coli as described below for the wild type enzyme. The resultant plasmids comprising mutant Agrobacterium tumefaciens AS are suitably cloned into a plasmid for overproduction of protein using the T7 expression system as described in Example 1.\n(§3) Agrobacterium tumefaciens AS wild type and mutant enzymes were expressed in E. coli as described in Example 1. The purification of all the Agrobacterium tumefaciens AS enzymes, including wild type and mutants therof, was performed at 4° C. The cells (approximate wet weight of 1 g) were suspended in 20 ml of purification buffer (50 mM potassium phosphate, pH […], 10 mM 2-mercaptoethanol, 10% glycerol) and lysed by ultrasonication (Branson sonifier Cell Disruptor, W185). Supernatant was collected after centrifugation of the homogenate at 20,000× g for 15 min. The supernatant was subjected to ammonium sulfate fractionation (30 to 65% saturation). The precipitate was collected after centrifugation at 20,000× g for […] and dissolved in 3 ml of the purification buffer and then loaded as a whole on an Econo-Pac 10DG desalting column, pre-equilibrated with the same buffer. Fractions containing the enzyme were detected by the developed assay and pooled. The pooled enzyme (4.3 mls) was loaded on a 10 ml DEAE Sephacel (Pharmacia Biotech) column (1.5×7.5 cm) equilibrated with the same buffer. The column was washed with 30 ml of the purification buffer and the enzyme was eluted with 30 ml of 50 mM NaCl in the same buffer. Fractions containing high AS activity were pooled and precipitated by 65% ammonium sulfate saturation and isolated and desalted as above. Fractions containing the enzyme were pooled and stored at −80° C.\n(§4) The standard assay for Agrobacterium tumefaciens AS was performed at 25° C. in an assay buffer containing 100 mM potassium phosphate, pH 7.0, 1 0 mM MgCl2, 1 mM dithiothreitol, 200 μM chorismate and 10 mM L-glutamine. The reaction was started by adding 30 μl of enzyme to the reaction mixture and mixing. The formation of anthranilate was directly monitored by the absorbance increase at […] for 3 min. Initial rate of reaction was calculated as unit absorbance increase per second based on the slope of the absorbance change over the reaction time. Km for chorismate (Km^Cho) was determined in the total volume of 1 ml assay buffer containing 100 mM potassium phosphate, pH 7.0, 10 mM MgCl2, 1 mM dithiothreitol with 10 mM L-glutamine and varying the concentration of chorismate between 2.5–100 μM chorismate. […] Kinetic parameters and IC50 of AS were calculated after fitting the data to a non-linear regression program (GraFit)."}, "[2]": {"biological_target": "Agrobacterium tumefaciens anthranilate synthase variant V48Y, SEQ ID NO:59 (Agrobacterium fabrum, UniProt A9CI26, V48Y)", "sequence (A9CI26 whole entry V48Y)": "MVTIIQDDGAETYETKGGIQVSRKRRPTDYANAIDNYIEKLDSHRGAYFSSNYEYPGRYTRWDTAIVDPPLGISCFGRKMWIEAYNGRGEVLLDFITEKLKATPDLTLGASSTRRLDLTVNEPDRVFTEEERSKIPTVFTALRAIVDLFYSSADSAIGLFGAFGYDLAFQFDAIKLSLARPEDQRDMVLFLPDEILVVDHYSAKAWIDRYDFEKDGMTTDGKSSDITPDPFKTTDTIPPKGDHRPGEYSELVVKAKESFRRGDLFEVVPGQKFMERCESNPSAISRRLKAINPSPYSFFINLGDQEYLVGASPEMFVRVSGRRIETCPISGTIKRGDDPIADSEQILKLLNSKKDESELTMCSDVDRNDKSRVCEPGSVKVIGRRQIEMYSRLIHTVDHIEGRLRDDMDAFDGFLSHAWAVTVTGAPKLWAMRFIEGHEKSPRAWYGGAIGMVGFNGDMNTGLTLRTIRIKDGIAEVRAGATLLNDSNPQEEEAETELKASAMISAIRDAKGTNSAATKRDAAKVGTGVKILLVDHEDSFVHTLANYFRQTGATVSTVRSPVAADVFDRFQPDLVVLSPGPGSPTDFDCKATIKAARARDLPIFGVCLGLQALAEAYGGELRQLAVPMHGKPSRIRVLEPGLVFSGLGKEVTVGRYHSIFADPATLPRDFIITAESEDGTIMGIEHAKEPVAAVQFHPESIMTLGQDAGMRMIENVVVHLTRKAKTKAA", "assay": "Anthranilate synthase enzyme assay and kinetic analysis, V48Y mutant", "text": "as §1, §2, §3, §4"}, "[3]": {"biological_target": "Agrobacterium tumefaciens anthranilate synthase (AgroAS), wild type, SEQ ID NO:4 (Agrobacterium fabrum, UniProt A9CI26)", "sequence (A9CI26 entry or part of it)": "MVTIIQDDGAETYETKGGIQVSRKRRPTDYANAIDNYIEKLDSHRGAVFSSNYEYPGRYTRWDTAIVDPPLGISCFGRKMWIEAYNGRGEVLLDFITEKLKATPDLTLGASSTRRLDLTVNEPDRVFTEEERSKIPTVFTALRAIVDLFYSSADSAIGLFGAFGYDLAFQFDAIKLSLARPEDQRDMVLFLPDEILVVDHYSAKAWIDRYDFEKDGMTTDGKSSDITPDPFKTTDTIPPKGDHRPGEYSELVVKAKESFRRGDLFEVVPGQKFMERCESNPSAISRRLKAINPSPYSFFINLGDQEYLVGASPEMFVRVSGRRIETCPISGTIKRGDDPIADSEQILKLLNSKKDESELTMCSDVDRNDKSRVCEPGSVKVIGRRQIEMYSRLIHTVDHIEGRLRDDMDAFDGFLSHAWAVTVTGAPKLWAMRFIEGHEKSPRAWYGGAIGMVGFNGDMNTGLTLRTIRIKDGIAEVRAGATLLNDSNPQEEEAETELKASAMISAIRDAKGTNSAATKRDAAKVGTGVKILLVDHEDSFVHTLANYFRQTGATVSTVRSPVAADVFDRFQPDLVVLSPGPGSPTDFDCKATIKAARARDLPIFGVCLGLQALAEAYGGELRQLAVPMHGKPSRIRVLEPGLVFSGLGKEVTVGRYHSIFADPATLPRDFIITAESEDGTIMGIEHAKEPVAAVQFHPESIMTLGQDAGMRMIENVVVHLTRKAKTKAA", "assay": "Anthranilate synthase enzyme assay and kinetic analysis, wild type", "procedure": "as §3\nThe standard assay for Agrobacterium tumefaciens AS was performed at 25° C. in an assay buffer containing 100 mM potassium phosphate, pH 7.0, 1 0 mM MgCl2, 1 mM dithiothreitol, 200 μM chorismate and 10 mM L-glutamine. The reaction was started by adding 30 μl of enzyme to the reaction mixture and mixing. The formation of anthranilate was directly monitored by the absorbance increase at […] for 3 min. Initial rate of reaction was calculated as unit absorbance increase per second based on the slope of the absorbance change over the reaction time. Km for chorismate (Km^Cho) was determined in the total volume of 1 ml assay buffer containing 100 mM potassium phosphate, pH 7.0, 10 mM MgCl2, 1 mM dithiothreitol with 10 mM L-glutamine and varying the concentration of chorismate between 2.5–100 μM chorismate. The Km for glutamine (Km^Gln) was determined in the total volume of 1 ml assay buffer containing 100 mM potassium phosphate, pH 7.0, 10 mM MgCl2, 1 mM dithiothreitol with 200 μM chorismate and varying the concentration of L-glutamine between 0.1–2 mM L-glutamine. IC50 for tryptophan (IC50TrP) was determined with in the total volume of 1 ml assay buffer containing 100 mM potassium phosphate, pH 7.0, 10 mM MgCl2, 1 mM dithiothreitol, 10 mM L-glutamine, 200 μM chorismate and varying the concentration of L-tryptophan between 0.1–10 mM L-tryptophan. Kinetic parameters and IC50 of AS were calculated after fitting the data to a non-linear regression program (GraFit)."}, "[4]": {"biological_target": "Agrobacterium tumefaciens anthranilate synthase variant S51F, SEQ ID NO:60 (Agrobacterium fabrum, UniProt A9CI26, S51F)", "sequence (A9CI26 whole entry S51F)": "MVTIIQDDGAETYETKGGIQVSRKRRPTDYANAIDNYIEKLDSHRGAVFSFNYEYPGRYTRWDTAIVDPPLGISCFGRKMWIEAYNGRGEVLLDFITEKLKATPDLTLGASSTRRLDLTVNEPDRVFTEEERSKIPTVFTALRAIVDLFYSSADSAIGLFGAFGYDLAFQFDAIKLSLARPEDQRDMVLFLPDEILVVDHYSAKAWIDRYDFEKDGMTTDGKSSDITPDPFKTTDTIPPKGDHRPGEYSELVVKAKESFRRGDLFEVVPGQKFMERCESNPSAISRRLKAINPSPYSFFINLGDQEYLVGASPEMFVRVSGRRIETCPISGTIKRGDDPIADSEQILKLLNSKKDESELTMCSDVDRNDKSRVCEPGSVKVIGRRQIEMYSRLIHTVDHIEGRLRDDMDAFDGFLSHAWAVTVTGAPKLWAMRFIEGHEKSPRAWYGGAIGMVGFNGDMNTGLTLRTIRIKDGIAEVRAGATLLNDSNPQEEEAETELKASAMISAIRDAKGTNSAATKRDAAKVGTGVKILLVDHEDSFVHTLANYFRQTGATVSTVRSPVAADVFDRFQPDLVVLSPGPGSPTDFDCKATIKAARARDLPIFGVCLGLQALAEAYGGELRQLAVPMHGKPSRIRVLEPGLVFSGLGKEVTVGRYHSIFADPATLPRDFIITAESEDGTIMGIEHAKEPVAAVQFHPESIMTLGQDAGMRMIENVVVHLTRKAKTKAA", "assay": "Anthranilate synthase enzyme assay and kinetic analysis, S51F mutant", "text": "as §1, §2, §3, §4"}, "[5]": {"biological_target": "Agrobacterium tumefaciens anthranilate synthase variant N52F, SEQ ID NO:62 (Agrobacterium fabrum, UniProt A9CI26, N52F)", "sequence (A9CI26 whole entry N52F)": "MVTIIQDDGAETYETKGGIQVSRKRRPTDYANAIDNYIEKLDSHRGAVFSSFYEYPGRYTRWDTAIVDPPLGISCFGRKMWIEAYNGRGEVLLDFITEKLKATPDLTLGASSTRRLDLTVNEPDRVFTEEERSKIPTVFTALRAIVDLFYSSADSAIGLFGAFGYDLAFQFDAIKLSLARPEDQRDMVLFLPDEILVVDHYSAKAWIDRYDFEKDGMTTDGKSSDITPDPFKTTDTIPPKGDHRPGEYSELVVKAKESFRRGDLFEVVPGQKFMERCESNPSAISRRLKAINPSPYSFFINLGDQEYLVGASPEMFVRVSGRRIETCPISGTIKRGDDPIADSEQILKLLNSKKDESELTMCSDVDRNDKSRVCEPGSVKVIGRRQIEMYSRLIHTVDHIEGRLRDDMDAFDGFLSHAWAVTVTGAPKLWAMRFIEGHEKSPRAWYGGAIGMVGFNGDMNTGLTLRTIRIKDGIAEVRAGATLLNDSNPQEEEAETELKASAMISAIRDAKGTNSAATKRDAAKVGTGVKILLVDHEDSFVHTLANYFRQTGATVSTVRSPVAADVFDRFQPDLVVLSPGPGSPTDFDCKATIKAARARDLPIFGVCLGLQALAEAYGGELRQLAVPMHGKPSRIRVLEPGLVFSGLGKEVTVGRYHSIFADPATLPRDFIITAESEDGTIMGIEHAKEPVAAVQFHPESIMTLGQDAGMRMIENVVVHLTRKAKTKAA", "assay": "Anthranilate synthase enzyme assay and kinetic analysis, N52F mutant", "text": "as §1, §2, §3, §4"}, "[6]": {"biological_target": "Agrobacterium tumefaciens anthranilate synthase variant S51C, SEQ ID NO:61 (Agrobacterium fabrum, UniProt A9CI26, S51C)", "assay": "Anthranilate synthase enzyme assay and kinetic analysis, S51C mutant", "text": "as §1, §2, §3, §4"}, "[7]": {"biological_target": "Agrobacterium tumefaciens anthranilate synthase variant V48F, SEQ ID NO:58 (Agrobacterium fabrum, UniProt A9CI26, V48F)", "assay": "Anthranilate synthase enzyme assay and kinetic analysis, V48F mutant", "text": "as §1, §2, §3, §4"}, "[8]": {"biological_target": "Agrobacterium tumefaciens anthranilate synthase variant S50K, SEQ ID NO:69 (Agrobacterium fabrum, UniProt A9CI26, S50K)", "sequence (A9CI26 whole entry S50K)": "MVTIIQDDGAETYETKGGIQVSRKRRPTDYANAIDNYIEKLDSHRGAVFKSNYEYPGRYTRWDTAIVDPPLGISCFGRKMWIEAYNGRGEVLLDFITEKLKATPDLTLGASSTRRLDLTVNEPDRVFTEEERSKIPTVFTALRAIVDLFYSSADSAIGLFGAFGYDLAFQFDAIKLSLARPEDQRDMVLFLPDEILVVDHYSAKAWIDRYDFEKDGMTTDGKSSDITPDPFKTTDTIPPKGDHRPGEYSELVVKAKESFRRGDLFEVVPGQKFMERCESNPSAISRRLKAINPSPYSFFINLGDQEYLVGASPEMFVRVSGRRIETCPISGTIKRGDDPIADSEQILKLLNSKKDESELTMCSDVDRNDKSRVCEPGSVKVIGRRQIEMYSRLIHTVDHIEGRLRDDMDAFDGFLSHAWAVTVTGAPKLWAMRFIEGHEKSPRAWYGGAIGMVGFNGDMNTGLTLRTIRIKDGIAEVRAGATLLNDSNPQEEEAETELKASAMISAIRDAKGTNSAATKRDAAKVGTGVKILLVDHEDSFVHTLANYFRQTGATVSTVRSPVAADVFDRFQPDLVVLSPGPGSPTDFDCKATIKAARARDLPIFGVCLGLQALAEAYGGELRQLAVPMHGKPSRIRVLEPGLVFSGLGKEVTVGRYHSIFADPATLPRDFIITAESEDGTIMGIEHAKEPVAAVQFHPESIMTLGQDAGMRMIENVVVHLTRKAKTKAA", "assay": "Anthranilate synthase enzyme assay and kinetic analysis, S50K mutant", "text": "as §1, §2, §3, §4"}, "[9]": {"biological_target": "Agrobacterium tumefaciens anthranilate synthase variant P293G, SEQ ID NO:64 (Agrobacterium fabrum, UniProt A9CI26, P293G)", "sequence (A9CI26 whole entry P293G)": "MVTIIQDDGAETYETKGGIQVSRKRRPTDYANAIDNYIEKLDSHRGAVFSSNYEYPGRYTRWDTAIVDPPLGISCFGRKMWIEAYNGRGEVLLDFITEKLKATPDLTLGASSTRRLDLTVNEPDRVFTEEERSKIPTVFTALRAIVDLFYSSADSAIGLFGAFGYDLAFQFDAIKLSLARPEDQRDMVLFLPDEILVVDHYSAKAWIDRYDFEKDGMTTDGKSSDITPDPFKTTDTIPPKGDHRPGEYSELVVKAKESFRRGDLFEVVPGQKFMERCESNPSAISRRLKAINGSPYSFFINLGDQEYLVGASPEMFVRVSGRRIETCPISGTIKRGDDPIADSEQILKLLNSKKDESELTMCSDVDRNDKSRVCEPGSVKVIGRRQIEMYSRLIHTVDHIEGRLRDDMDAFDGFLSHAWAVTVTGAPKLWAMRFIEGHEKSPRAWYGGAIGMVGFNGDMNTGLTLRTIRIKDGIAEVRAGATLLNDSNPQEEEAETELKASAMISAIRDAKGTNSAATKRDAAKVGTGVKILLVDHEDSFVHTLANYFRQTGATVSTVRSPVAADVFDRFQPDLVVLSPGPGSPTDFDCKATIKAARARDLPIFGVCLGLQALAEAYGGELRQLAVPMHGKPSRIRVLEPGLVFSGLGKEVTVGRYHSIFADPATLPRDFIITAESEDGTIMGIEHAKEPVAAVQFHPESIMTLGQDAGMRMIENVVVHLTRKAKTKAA", "assay": "Anthranilate synthase enzyme assay and kinetic analysis, P293G mutant", "text": "as §1, §2, §3, §4"}},
  "note": "pIC50: −log10 of the molar value. Read-outs that look alike come from different tables or passages of the source.",
  "data": [
    {"smiles": "N[C@@H](Cc1c[nH]c2ccccc12)C(=O)O", "note": "[L-tryptophan]", "values": [
      {"measurement": "pIC50", "setting": "[1]", "value": 4.85},
      {"measurement": "pIC50", "setting": "[2]", "value": 3.19},
      {"measurement": "pIC50", "setting": "[3]", "value": 5.30},
      {"measurement": "pIC50", "setting": "[3]; read-out: IC50^trp, wild type, Table J (5-MT resistant clones)", "value": 5.30},
      {"measurement": "pIC50", "setting": "[4]", "value": "< 1.49"},
      {"measurement": "pIC50", "setting": "[5]", "value": 4.39},
      {"measurement": "pIC50", "setting": "[6]", "value": 2.82},
      {"measurement": "pIC50", "setting": "[7]", "value": 3.82},
      {"measurement": "pIC50", "setting": "[8]", "value": 7.00},
      {"measurement": "pIC50", "setting": "[9]", "value": 4.77}
    ]}
  ]
}
